Reference: patent US20200048267A1, “OGA INHIBITOR COMPOUNDS” (Janssen Pharmaceutica NV, priority 2017, published 2020)

What was measured:
[1] = target: T1, recombinant human Meningioma Expressed Antigen 5 (MGEA5), also referred to as O-GlcNAcase (OGA) (Homo sapiens, UniProt O60502); test: OGA biochemical assay (inhibition of FM-GlcNAc hydrolysis, fluorescence); conditions: for Emax: read-out: ENZYMATIC Emax (%); for IC50: read-out: ENZYMATIC hOGA, pIC50 (converted)
T1 construct: Full length OGA enzyme was purchased at OriGene (cat # TP322411); purchased OriGene TP322411
T1 sequence (O60502 1-916): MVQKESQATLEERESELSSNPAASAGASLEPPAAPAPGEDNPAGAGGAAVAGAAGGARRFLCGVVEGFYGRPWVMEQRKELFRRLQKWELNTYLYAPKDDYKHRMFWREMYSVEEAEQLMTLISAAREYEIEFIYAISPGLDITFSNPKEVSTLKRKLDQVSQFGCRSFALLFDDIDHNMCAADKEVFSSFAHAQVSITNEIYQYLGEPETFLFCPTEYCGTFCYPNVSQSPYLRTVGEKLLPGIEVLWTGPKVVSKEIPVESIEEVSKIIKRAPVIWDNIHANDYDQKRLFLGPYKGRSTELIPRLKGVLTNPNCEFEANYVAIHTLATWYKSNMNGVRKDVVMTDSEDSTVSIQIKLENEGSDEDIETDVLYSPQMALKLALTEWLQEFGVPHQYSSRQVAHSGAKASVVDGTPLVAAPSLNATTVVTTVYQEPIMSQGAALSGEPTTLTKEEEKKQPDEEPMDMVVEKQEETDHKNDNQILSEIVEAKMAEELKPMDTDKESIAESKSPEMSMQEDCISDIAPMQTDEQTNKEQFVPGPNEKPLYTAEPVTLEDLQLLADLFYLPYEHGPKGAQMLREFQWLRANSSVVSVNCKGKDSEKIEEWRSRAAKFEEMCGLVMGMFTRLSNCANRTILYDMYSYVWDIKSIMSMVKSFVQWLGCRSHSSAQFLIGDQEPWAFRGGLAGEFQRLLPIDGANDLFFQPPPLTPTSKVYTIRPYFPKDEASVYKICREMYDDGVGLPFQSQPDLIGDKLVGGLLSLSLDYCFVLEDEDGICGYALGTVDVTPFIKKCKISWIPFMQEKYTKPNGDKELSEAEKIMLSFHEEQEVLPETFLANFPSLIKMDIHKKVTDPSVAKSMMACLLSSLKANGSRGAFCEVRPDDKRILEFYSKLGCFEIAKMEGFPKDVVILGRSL
Description: The assay is based on the inhibition of the hydrolysis of fluorescein mono-β-D-N-Acetyl-Glucosamine (FM-GlcNAc) (Mariappa et al. 2015, Biochem J 470:255) by the recombinant human Meningioma Expressed Antigen 5 (MGEA5), also referred to as O-GlcNAcase (OGA). The hydrolysis FM-GlcNAc (Marker Gene technologies, cat # M1485) results in the formation of B-D-N-glucosamineacetate and fluorescein. The fluorescence of the latter can be measured at excitation wavelength 485 nm and emission wavelength 538 nm. An increase in enzyme activity results in an increase in fluorescence signal. Full length OGA enzyme was purchased at OriGene (cat # TP322411). The enzyme was stored in 25 mM Tris.HCl, pH 7.3, 100 mM glycine, 10% glycerol at −20° C. Thiamet G and GlcNAcStatin were tested as reference compounds (Yuzwa et al. 2008 Nature Chemical Biology 4:483; Yuzwa et al. 2012 Nature Chemical Biology 8:393). The assay was performed in 200 mM Citrate/phosphate buffer supplemented with 0.005% Tween-20. 35.6 g Na2HPO4 2 H2O (Sigma, # C0759) were dissolved in 1 L water to obtain a 200 mM solution. 19.2 g citric acid (Merck, # 1.06580) was dissolved in 1 L water to obtain a 100 mM solution. pH of the sodium phosphate solution was adjusted with the citric acid solution to 7.2. The buffer to stop the reaction consists of a 500 mM Carbonate buffer, pH 11.0. 734 mg FM-GlcNAc were dissolved in 5.48 mL DMSO to obtain a 250 mM solution and was stored at −20° C. OGA was used at 2 nM concentration and FM-GlcNAc at a 100 uM final concentration. Dilutions were prepared in assay buffer.
50 nl of a compound dissolved in DMSO was dispensed on Black Proxiplate™ 384 Plus Assay plates (Perkin Elmer, #6008269) and 3 μl fl-OGA enzyme mix added subsequently. Plates were pre-incubated for 60 min at room temperature and then 2 μl FM-GlcNAc substrate mix added. […] Plates were briefly centrifuged for 1 min at 1000rpm and incubate at room temperature for 6 h. To stop the reaction 5 μl STOP buffer were added and plates centrifuge again 1 min at 1000 rpm.
Fluorescence was quantified in the Thermo Scientific Fluoroskan Ascent or the PerkinElmer EnVision with excitation wavelength 485 nm and emission wavelength 538 nm.
For analysis a best-fit curve is fitted by a minimum sum of squares method. From this an IC50 value and Hill coefficient was obtained. High control (no inhibitor) and low control (saturating concentrations of standard inhibitor) were used to define the minimum and maximum values.

[2] = target: T2, OGA (Homo sapiens, UniProt O60502); test: OGA cellular assay (ICC detection of O-GlcNAcylated proteins in HEK293 cells inducible for P301L mutant human Tau); format: cell-based; conditions: 6 hours incubation; for EC50: read-out: CELLULAR hOGA, pEC50 (converted)
T2 construct: HEK293 cells inducible for P301L mutant human Tau (isoform 2N4R) were established at Janssen; endogenous in cells; host or cells: HEK293 cells inducible for P301L mutant human Tau (2N4R)
T2 sequence (O60502 1-916): T1 sequence (O60502 1-916)
Description: HEK293 cells inducible for P301L mutant human Tau (isoform 2N4R) were established at Janssen. Thiamet-G was used for both plate validation (high control) and as reference compound (reference EC50 assay validation). OGA inhibition is evaluated through the immunocytochemical (ICC) detection of O-GlcNAcylated proteins by the use of a monoclonal antibody (CTD110.6; Cell Signaling, #9875) detecting O-GlcNAcylated residues as previously described (Dorfmueller et al. 2010 Chemistry & biology, 17:1250). Inhibition of OGA will result in an increase of O-GlcNAcylated protein levels resulting in an increased signal in the experiment. Cell nuclei are stained with Hoechst to give a cell culture quality control and a rough estimate of immediate compounds toxicity, if any. ICC pictures are imaged with a Perkin Elmer Opera Phenix plate microscope and quantified with the provided software Perkin Elmer Harmony 4.1.
Cells were propagated in DMEM high Glucose (Sigma, #D5796) following standard procedures. 2 days before the cell assay cells are split, counted and seeded in Poly-D-Lysine (PDL) coated 96-wells (Greiner, #655946) plate at a cell density of 12,000 cells per cm^2 (4,000 cells per well) in 100 µl of Assay Medium (Low Glucose medium is used to reduce basal levels of GlcNAcylation) (Park et al. 2014 The Journal of biological chemistry 289:13519). At the day of compound test medium from assay plates was removed and replenished with 90 μl of fresh Assay Medium. 10 μl of compounds at a 10 fold final concentration were added to the wells. Plates were centrifuged shortly before incubation in the cell incubator for 6 hours. DMSO concentration was set to 0.2%. Medium is discarded by applying vacuum. For staining of cells medium was removed and cells washed once with 100 μl D-PBS (Sigma, #D8537). From next step onwards unless other stated assay volume was always 50 μl and incubation was performed without agitation and at room temperature. Cells were fixed in 50 μl of a 4% paraformaldehyde (PFA, Alpha aesar, # 043368) PBS solution for 15 minutes at room temperature. […] Before analysis samples were washed 2 times manually for 5 minutes in ICC base buffer.
Imaging is performed using Perkin Elmer Phenix Opera using a water 20× objective and recording 9 fields per well. Intensity readout at 488 nm is used as a measure of O-GlcNAcylation level of total proteins in wells. To assess potential toxicity of compounds nuclei were counted using the Hoechst staining. IC50-values are calculated using parametric non-linear regression model fitting. As a maximum inhibition Thiamet G at a 200 uM concentration is present on each plate. In addition, a concentration response of Thiamet G is calculated on each plate.

SMILES	Emax [1]	IC50 [1]	ENZYMATIC Emax (%) [1]	Emax [2]	EC50 [2]	ENZYMATIC hOGA; pIC50 [1]
CC(=O)Nc1ncc(CN2CCC3(CCN(c4cc(C)nc(C)c4)C3)C2)s1 (single isomer, unassigned) [Product 2]	101%	0.0102 µM				
CC(=O)Nc1ncc(CN2CCC3(CCN(c4cc(C)nc(C)c4)C3)C2)s1 (single isomer, unassigned) [Product 3]		0.00372 µM	100.9%	100%	0.282 µM	
Cc1cc(N2CCC3(CCN(Cc4ccc5nccnc5c4)C3)C2)cc(C)n1 (single isomer, unassigned) [Product 4]	98.8%	0.224 µM		23.4%	> 10 µM	
Cc1cc(N2CCC3(CCN(Cc4ccc5nccnc5c4)C3)C2)cc(C)n1 (single isomer, unassigned) [Product 5]		0.219 µM	98.6%			
Cc1cc(N2CCC3(CCN(C(C)c4ccc5nccnc5c4)C3)C2)cc(C)n1 (single isomer, unassigned) [Product 7]	98.6%	0.0724 µM		62.9%	3.8 µM	
CC(=O)Nc1ncc(CN2CCC3(CCN(c4cc(C)nc(C)c4)C3)C2)s1 (stereo not drawn) [Product 1]	102%			123%	0.141 µM	8.22
Cc1cc(N2CCC3(CCN(C(C)c4ccc5nccnc5c4)C3)C2)cc(C)n1 (stereo not drawn) [Product 6]	97.8%	0.0977 µM				
Cc1cc(N2CCC3(CCN(C(C)c4ccc5c(c4)OCO5)C3)C2)cc(C)n1 (stereo not drawn) [Product 8]	96.6%	0.1 µM				
CC(=O)Nc1ncc(CN2CCC3(CCN(c4cc(C)nc(C)n4)C3)C2)s1 (stereo not drawn) [Product 9]	101%			85.4%	0.17 µM	7.88
Cc1cc(N2CCC3(CCN(C(C)c4ccc5c(c4)OCO5)C3)C2)nc(C)n1 (stereo not drawn) [Product 10]	99.8%	0.135 µM				
CC(=O)Nc1ncc(CN2CCC3(CCN(c4cnccn4)C3)C2)s1 (stereo not drawn) [Product 11]	99.1%	0.0813 µM				
CC(=O)Nc1ncc(CN2CCC3(CCN(c4cncc(C)n4)C3)C2)s1 (stereo not drawn) [Product 12]	101%	0.0347 µM				
CC(=O)Nc1ncc(CN2CCC3(CCN(c4cncc(C5CC5)n4)C3)C2)s1 (stereo not drawn) [Product 13]	100%			92.3%		7.69

The remaining lines, values ahead:

Emax [1]	IC50 [1]	ENZYMATIC Emax (%) [1]	Emax [2]	EC50 [2]	ENZYMATIC hOGA; pIC50 [1]	SMILES
94.2%	0.724 µM					c1cnc2cc(CN3CCC4(CCN(c5cncc(C6CC6)n5)C4)C3)ccc2n1 (stereo not drawn) [Product 14]
93.4%	0.229 µM					CC(c1ccc2nccnc2c1)N1CCC2(CCN(c3cncc(C4CC4)n3)C2)C1 (stereo not drawn) [Product 15]
79%	2.69 µM		19.5%	> 10 µM		CC(=O)Nc1cnc(N2CCC3(CCN(C(C)c4ccc5c(c4)OCO5)C3)C2)nc1 (stereo not drawn) [Product 16]
90.6%	0.562 µM					CC(=O)Nc1ncc(CN2CCC3(CCN(Cc4cc(C)nc(C)c4)C3)C2)s1 (stereo not drawn) [Product 17]
102%	0.117 µM		56.4%	0.871 µM		CCc1cncc(N2CCC3(CCN(Cc4cnc(NC(C)=O)s4)C3)C2)n1 (stereo not drawn) [Product 19]
98.1%	0.17 µM		23.6%	> 1 µM		Cc1cc(N2CCC3(CCN(Cc4ccc5scnc5c4)C3)C2)nc(C)n1 (stereo not drawn) [Product 21]
84.4%	2 µM					CC(=O)Nc1ncc(CN2CCC3(CCN(Cc4ccc(C(F)(F)F)cn4)C3)C2)s1 (stereo not drawn) [Product 35]
98.4%	0.0661 µM					CC(=O)Nc1ncc(CN2CCC3(CCN(c4nc(C)cnc4C)C3)C2)s1 (stereo not drawn) [Product 40]
99.8%	0.0537 µM					CC(=O)Nc1ncc(CN2CCC3(CCN(c4cncnc4)C3)C2)s1 (stereo not drawn) [Product 43]
102%	0.0339 µM					CC(=O)Nc1ncc(CN2CCC3(CCN(c4ccc(C)nc4)C3)C2)s1 (stereo not drawn) [Product 44]
99.2%	0.0617 µM					CC(=O)Nc1ncc(CN2CCC3(CCN(c4cnc(C)nc4)C3)C2)s1 (stereo not drawn) [Product 45]
99%	0.112 µM					CC(=O)Nc1ncc(CN2CCC3(CCN(c4ncc(F)cc4F)C3)C2)s1 (stereo not drawn) [Product 46]
97.1%	0.309 µM					COc1nc(C)ccc1N1CCC2(CCN(Cc3cnc(NC(C)=O)s3)C2)C1 (stereo not drawn) [Product 53]
101%	0.0282 µM					CC(=O)Nc1ncc(CN2CCC3(CCN(c4nc(C)ncc4C)C3)C2)s1 (stereo not drawn) [Product 54]
99%	0.0457 µM					CC(=O)Nc1ncc(CN2CCC3(CCN(c4nnc(C)cc4C)C3)C2)s1 (stereo not drawn) [Product 55]
100%	0.0513 µM					CC(=O)Nc1ncc(CN2CCC3(CCN(c4cc(F)ncc4C)C3)C2)s1 (stereo not drawn) [Product 56]
